Assay results: US8829049B2, “Medicinal composition intended for the treatment of erectile dysfunction in mammals and use of the composition” (ACEF S.A., priority 2009, dated 2014)
“Also recorded” adds a separate entry of the source. Where a name gives a salt, the structure may show the parent alone.

Legend:
[1] = heart rate and adverse signs in the treated mice; format: in vivo; conditions: for Heart rate, AVERAGE, after: after administration; for Heart rate, AVERAGE, before: before administration; for adverse signs observed (tachycardia, shaking): intraperitoneal, Group I sildenafil citrate, Group III cubebin
Experimental: (§1) 42 Swiss mice have been used, adults, between 18 and 24 weeks old, weighing between 25 and 35 grams, from the Biotherium of the University of Franca (UNIFRAN), which were confined in plastic cages with metal fences and fed with standard feed (Labina-Purina) and water ad libitum, at room temperature of 22° C.
After a period of adaptation, the animals have been divided into seven groups, as per Table 1 below: […]

[2] = target: phosphodiesterase 5 (PDE-5) (Homo sapiens, UniProt O76074); assay: activity test for the enzyme phosphodiesterase 5 (PDE-5); format: biochemical; conditions: PDE-5 enzyme activity; read-out: 50% effective dose (DE50)
patients = conditions: cited from earlier work; for interaction with nitrates: combination with nitroglycerin / organic nitrates; for adverse effects: patients
[3] = cited from earlier work
Swiss mice = assay: vasodilating effect / penile erection test in Swiss mice, intraperitoneal administration, with penile histology; format: in vivo
Experimental: as §1
After a period of adaptation, the animals have been divided into seven groups, as per Table 1 below:
Animals from all groups have been kept under the same conditions for four hours for later evaluation of the studied pharmacological effect. They were subsequently anesthetized with a solution of 1.5 mg of ketamine plus 0.1 mg of xylazine and then euthanized to take off the penile tissue. Each sample was immediately stocked in 10% formaldehyde to make histological slides.

Row | EC50 [2] [µM] | Compound | Heart rate, AVERAGE, after [1] | Heart rate, AVERAGE, before [1] | adverse signs observed (tachycardia, shaking) [1] | interaction with nitrates (patients) | adverse effects (patients) | also measured
1 | 16.6 ± 8.2 | OC1OC[C@H](Cc2ccc3c(c2)OCO3)[C@H]1Cc1ccc2c(c1)OCO2 (mixture of isomers) [cubebin] | 553.5 | 621.7 | not causing tachycardia or shaking |  |  | 
2 |  | CN1CC(=O)N2[C@H](c3ccc4c(c3)OCO4)c3[nH]c4ccccc4c3C[C@@H]2C1=O [Tadalafil] |  |  |  | modest synergic effects | patients did not have red skin | 
3 |  | CCCc1nc(C)c2c(=O)[nH]c(-c3cc(S(=O)(=O)N4CCN(CC)CC4)ccc3OCC)nn12 [Vardenafil] |  |  |  | minimum changes in heart rate and blood pressure |  | time to maximum plasma concentration ([3]; single doses of 10 or 20 mg): ≤ 0.7 h
4 |  | O[C@H]1OC[C@H](Cc2ccc3c(c2)OCO3)[C@H]1Cc1ccc2c(c1)OCO2 [cubebin] |  |  |  |  |  | ejaculation after treatment (Swiss mice; mice of Group III, FIGS. 4c and 4d): ejaculating after said treatment; penile erection / sexual behaviour observed (Swiss mice; mice, intraperitoneal, Group I sildenafil citrate, Group III 20 mg/kg cubebin): prolonged erection and licked the penis; also recorded: penile erection; histology of corpus cavernosum (Swiss mice; mouse penile tissue, H. E., 400×): void space very dilated and congested
5 |  | CCCc1nn(C)c2c(=O)[nH]c(-c3cc(S(=O)(=O)N4CCN(C)CC4)ccc3OCC)nc12 [sildenafil citrate] | 627.75 | 628.5 | tachycardia, shaking and testicle tumescence |  | cephalea, red skin, dyspepsia, nose congestion and visual disturbances | half life in circulation ([3]; in vivo): four; deaths related to the drug reported (patients; in vivo): More than 500 deaths; rate of deaths (patients; in vivo): fifty
6 | 38.4 ± 1.8 | hydroethylic desildenafil citrate |  |  |  |  |  | 
